Source: ChEMBL document CHEMBL5550128, “Discovery and preclinical evaluations of TQB3616, a novel CDK4-biased inhibitor” (Bioorg Med Chem Lett, 2024)

Legend:
SK-MEL-28 = experiment: Inhibition of cell proliferation in human SK-MEL-28 cells at 0.3 uM incubated for 72 hrs by Cell Titer Glo assay relative to control; format: functional
MKN-45 = experiment: Inhibition of cell proliferation in human MKN-45 cells at 0.3 uM incubated for 72 hrs by Cell Titer Glo assay relative to control; format: functional
[1] = molecular target: T1, Retinoblastoma-associated protein (Homo sapiens) (UniProt P06400); experiment: Inhibition of Rb phosphorylation in human MCF7 cells assessed as decrease in FoxM1 level incubated for 24 to 48 hrs by In-cell western assay; format: cell-based; conditions: dose 100-500 nM, time 24-48 hrs
T1 sequence (whole entry): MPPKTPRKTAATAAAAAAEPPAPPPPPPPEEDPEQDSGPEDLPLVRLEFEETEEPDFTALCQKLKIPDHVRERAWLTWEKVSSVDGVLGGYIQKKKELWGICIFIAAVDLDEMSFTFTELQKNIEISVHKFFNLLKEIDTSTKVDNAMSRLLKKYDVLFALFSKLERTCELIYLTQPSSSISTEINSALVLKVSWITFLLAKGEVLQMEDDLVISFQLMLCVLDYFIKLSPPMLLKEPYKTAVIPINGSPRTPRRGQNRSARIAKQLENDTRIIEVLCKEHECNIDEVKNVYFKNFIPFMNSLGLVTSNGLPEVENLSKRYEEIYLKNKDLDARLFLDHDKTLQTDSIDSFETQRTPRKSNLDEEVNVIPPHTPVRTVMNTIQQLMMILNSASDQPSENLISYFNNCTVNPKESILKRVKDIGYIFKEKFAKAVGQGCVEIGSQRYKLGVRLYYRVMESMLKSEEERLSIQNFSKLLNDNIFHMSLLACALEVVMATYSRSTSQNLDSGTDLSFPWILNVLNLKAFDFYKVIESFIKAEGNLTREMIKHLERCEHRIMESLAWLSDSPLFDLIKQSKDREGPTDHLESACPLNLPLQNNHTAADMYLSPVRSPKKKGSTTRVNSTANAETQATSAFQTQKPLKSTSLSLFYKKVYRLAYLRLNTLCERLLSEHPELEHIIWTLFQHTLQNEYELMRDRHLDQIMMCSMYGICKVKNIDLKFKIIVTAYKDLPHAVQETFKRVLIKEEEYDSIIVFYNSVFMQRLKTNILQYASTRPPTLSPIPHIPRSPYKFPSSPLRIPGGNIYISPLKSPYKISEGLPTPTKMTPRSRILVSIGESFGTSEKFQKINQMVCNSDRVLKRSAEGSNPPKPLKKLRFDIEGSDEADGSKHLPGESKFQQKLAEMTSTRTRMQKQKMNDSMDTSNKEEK

MCF7 [2] = experiment: Antitumor activity against human MCF7 cells xenografted in mouse at 5 mg/kg, po qd for 3 weeks relative to control; format: functional; conditions: MCF7, 504 h, read-out: TGI
Cytochrome P450 2C19 = Cytochrome P450 2C19 (Homo sapiens, UniProt P33261); experiment: Inhibition of CYP2C19 (unknown origin) using […] as substrate; format: ADME
Chain of Cytochrome P450 2C19 (P33261 whole entry): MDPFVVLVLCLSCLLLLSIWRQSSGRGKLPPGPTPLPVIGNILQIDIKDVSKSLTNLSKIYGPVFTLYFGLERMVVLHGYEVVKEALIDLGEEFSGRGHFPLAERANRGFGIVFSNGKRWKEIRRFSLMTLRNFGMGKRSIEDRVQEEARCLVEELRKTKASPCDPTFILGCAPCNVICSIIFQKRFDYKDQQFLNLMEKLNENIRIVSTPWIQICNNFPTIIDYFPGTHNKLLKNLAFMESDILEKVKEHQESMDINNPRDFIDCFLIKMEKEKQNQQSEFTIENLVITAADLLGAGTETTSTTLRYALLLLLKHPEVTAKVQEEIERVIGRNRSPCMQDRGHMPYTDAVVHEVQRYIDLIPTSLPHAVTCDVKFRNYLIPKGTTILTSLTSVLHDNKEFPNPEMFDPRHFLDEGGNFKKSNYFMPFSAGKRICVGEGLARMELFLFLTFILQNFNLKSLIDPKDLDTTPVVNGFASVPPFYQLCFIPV

[3] = Plasma protein in mouse assessed as unbound fraction; format: ADME, cell-free
MDA-MB-436 [4] = experiment: Induction of cell cycle arrest at S phase in Rb-deficient human MDA-MB-436 cells at 0.16 uM (reference value: 22.47 %); format: functional
Cytochrome P450 2D6 = Cytochrome P450 2D6 (Homo sapiens, UniProt P10635); experiment: Inhibition of CYP2D6 (unknown origin) using […] as substrate; format: ADME
Chain of Cytochrome P450 2D6 (P10635 whole entry): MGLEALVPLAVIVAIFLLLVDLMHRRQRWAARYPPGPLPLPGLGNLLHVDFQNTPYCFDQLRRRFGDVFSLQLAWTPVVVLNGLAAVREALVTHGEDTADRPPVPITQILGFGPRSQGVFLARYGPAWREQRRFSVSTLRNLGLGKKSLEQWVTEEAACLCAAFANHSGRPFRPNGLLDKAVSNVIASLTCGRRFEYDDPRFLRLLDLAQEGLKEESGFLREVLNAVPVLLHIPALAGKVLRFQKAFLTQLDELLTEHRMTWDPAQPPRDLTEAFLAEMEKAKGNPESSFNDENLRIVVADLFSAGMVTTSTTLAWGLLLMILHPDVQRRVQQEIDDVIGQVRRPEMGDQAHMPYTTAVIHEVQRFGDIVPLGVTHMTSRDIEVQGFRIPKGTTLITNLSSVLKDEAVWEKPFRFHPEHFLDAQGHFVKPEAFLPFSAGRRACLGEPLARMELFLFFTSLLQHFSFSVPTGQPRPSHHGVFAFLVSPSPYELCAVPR

KG-1 = experiment: Inhibition of cell proliferation in human KG-1 cells at 0.3 uM incubated for 72 hrs by Cell Titer Glo assay relative to control; format: functional
[5] = molecular target: T1, Retinoblastoma-associated protein (Homo sapiens); experiment: Inhibition of Rb phosphorylation in human MCF7 cells incubated for 24 to 48 hrs by In-cell western assay; format: cell-based; conditions: dose 100-500 nM, time 24-48 hrs
MCF7 [6] = experiment: Antitumor activity against human MCF7 cells xenografted in mouse at 15 mg/kg, po qd for 3 weeks relative to control; format: functional; conditions: MCF7, 504 h, read-out: TGI
MCF7 [7] = experiment: Induction of cell cycle arrest at S phase in Rb-proficient human MCF7 cells at 0.16 uM (reference value: 19.19 %); format: functional
[8] = Intrinsic clearance in CD-1 mouse at 0.5 mg/kg, iv; format: ADME, organism-based; conditions: in vivo
[9] = Half life in Beagle dog at 0.6 mg/kg, iv; format: ADME, organism-based, Canis lupus familiaris; conditions: in vivo
DU-145 = experiment: Inhibition of cell proliferation in human DU-145 cells at 0.3 uM incubated for 72 hrs by Cell Titer Glo assay relative to control; format: functional
MDA-MB-436 [10] = experiment: Antiproliferative activity against Rb-deficient human MDA-MB-436 cells assessed as inhibition of cellular viability; format: functional, cell-based
[11] = Cmax in Sprague-Dawley rat at 6 mg/kg, po; format: ADME, organism-based; conditions: in vivo
[12] = Intrinsic clearance in Sprague-Dawley rat at 1 mg/kg, iv; format: ADME, organism-based; conditions: in vivo
BXPC-3 = experiment: Inhibition of cell proliferation in human BXPC-3 cells at 0.3 uM incubated for 72 hrs by Cell Titer Glo assay relative to control; format: functional
[13] = Oral bioavailability in Sprague-Dawley rat at 6 mg/kg; format: ADME, organism-based; conditions: in vivo
NCI-H520 = experiment: Inhibition of cell proliferation in human NCI-H520 cells at 0.3 uM incubated for 72 hrs by Cell Titer Glo assay relative to control; format: functional
[14] = AUC (0 to last) in Sprague-Dawley rat at 6 mg/kg, po; format: ADME, organism-based; conditions: in vivo
[15] = Half life in Sprague-Dawley rat at 1 mg/kg, iv; format: ADME, organism-based; conditions: in vivo
[16] = Aqueous solubility of compound at pH <=4.5; format: physicochemical
[17] = molecular target: Voltage-gated inwardly rectifying potassium channel KCNH2 (Homo sapiens, UniProt Q12809); experiment: Inhibition of hERG; format: toxicity
Chain of Voltage-gated inwardly rectifying potassium channel KCNH2 (Q12809 whole entry): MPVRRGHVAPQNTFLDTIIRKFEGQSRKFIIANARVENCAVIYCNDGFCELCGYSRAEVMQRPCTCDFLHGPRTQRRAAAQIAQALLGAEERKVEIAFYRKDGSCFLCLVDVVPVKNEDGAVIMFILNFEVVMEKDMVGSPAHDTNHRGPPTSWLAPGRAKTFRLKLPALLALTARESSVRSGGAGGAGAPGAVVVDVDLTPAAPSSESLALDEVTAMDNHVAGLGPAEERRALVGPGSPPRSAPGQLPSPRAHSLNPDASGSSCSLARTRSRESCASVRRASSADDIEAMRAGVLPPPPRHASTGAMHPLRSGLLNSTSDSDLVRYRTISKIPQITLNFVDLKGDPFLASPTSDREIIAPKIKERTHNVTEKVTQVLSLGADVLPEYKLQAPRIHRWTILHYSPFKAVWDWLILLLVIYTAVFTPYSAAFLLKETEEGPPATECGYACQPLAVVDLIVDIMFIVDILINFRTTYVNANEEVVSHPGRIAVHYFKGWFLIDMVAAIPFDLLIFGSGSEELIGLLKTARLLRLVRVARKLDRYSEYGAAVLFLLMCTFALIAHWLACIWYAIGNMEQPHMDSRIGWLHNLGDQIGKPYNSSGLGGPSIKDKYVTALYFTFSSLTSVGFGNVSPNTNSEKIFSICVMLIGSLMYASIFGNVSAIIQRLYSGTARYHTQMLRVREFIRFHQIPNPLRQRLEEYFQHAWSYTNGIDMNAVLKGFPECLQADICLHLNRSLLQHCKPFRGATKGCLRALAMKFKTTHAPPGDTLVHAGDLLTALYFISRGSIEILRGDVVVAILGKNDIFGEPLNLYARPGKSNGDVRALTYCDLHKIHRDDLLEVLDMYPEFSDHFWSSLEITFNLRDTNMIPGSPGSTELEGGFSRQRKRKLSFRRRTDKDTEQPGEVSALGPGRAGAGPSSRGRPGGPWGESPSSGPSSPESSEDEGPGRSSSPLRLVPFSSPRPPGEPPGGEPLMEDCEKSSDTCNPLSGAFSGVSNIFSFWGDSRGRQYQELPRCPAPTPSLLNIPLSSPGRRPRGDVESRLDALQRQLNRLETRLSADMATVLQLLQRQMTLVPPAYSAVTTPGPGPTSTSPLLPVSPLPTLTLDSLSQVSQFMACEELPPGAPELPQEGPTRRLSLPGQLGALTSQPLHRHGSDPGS

SNU1 = experiment: Inhibition of cell proliferation in human SNU1 cells at 0.3 uM incubated for 72 hrs by Cell Titer Glo assay relative to control; format: functional
[18] = Plasma protein in rat assessed as unbound fraction; format: ADME, cell-free
[19] = Toxicity in mouse xenografted with human MCF7 cells assessed as body weight change at 5 to 15 mg/kg, po for 3 weeks relative to control; format: organism-based; conditions: in vivo, 504 h, dose 5-15 mg/kg
[20] = Plasma protein in human assessed as unbound fraction; format: ADME, cell-free
[21] = Plasma protein in monkey assessed as unbound fraction; format: ADME, cell-free, Macaca mulatta; conditions: rhesus monkey
[22] = Plasma protein in dog assessed as unbound fraction; format: ADME, cell-free, Canis lupus familiaris
[23] = Inhibition of cell proliferation in human MINO cells at 0.3 uM incubated for 72 hrs by Cell Titer Glo assay relative to control; format: functional
A673 = experiment: Inhibition of cell proliferation in human A673 cells at 0.3 uM incubated for 72 hrs by Cell Titer Glo assay relative to control; format: functional
[24] = Cmax in CD-1 mouse at 2 mg/kg, po; format: ADME, organism-based; conditions: in vivo
[25] = Cmax in Beagle dog at 2 mg/kg, po; format: ADME, organism-based, Canis lupus familiaris; conditions: in vivo
[26] = Volume of distribution at steady state in Beagle dog at 0.6 mg/kg, iv; format: ADME, organism-based, Canis lupus familiaris; conditions: in vivo, read-out: Vdss

SMILES: CC(C)c1c2cc(-c3nc(Nc4ccc(N5CCNCC5)cn4)ncc3F)ccc2nn1C [CULMERCICLIB]
- inhibition at 0.3 µM (SK-MEL-28): 13.7%
- inhibition at 0.3 µM (MKN-45): 53.1%
- inhibition [1]: Dose-Dependent Effect
- inhibition in vivo at 5 mg/kg (MCF7 [2]): 68%
- IC50 (Cytochrome P450 2C19): 9.33 µM
- fraction unbound [3]: 0.026
- Activity (MDA-MB-436 [4]): 26.1%
- IC50 (Cytochrome P450 2D6): > 50 µM
- inhibition in vivo at 0.3 µM (KG-1): 61.1%
- inhibition [5]: Dose-Dependent Effect
- inhibition in vivo at 15 mg/kg (MCF7 [6]): 93%
- Activity (MCF7 [7]): 5.91%
- CL [8]: 31.3 mL/min/kg
- half-life [9]: 7.8 h
- inhibition at 0.3 µM (DU-145): 27.3%
- IC50 (MDA-MB-436 [10]): 0.484 µM
- Cmax [11]: 415 nM
- CL [12]: 30.4 mL/min/kg
- inhibition at 0.3 µM (BXPC-3): 23.1%
- bioavailability [13]: 74.9%
- inhibition at 0.3 µM (NCI-H520): 24%
- AUC(0-t) [14]: 5.88 µM·h
- half-life [15]: 4.2 h
- solubility [16]: > 2000 µg/mL
- IC50 [17]: 5.3 µM
- inhibition at 0.3 µM (SNU1): 55.4%
- fraction unbound [18]: 0.025
- Activity [19]: < 5%
- fraction unbound [20]: 0.08
- fraction unbound [21]: 0.061
- fraction unbound [22]: 0.051
- inhibition at 0.3 µM [23]: 67%
- inhibition at 0.3 µM (A673): -4.1%
- Cmax [24]: 248 nM
- Cmax [25]: 109 nM
- Vd [26]: 17.1 L/kg
